Assay [1] addresses T1, CDK2/cyclin A (Homo sapiens, UniProt P24941).
T1 construct: made in house; host or cells: CDK2: insect cells (baculovirus); cyclin A: E. coli, then limited proteolysis
Nature of the assay: Inhibition of CDK2/Cyclin A retinoblastoma kinase activity. Type of assay: biochemical. Conditions: for Ki: apparent Ki, Rb fragment substrate, 25 μM ATP. On the procedure:
(§1) Cyclin-dependent kinase activity was measured by quantifying the enzyme-catalyzed, time-dependent incorporation of radioactive phosphate from [^32P]ATP or [^33P]ATP into a protein substrate. […] Reactions were initiated with enzyme, incubated at 30° C., and terminated after 20 minutes by the addition of ethylenediaminetetraacetic acid (EDTA) to 250 mM. […] Radioactivity was quantified by exposing the dried membranes to a phosphorimager.
(§2) Apparent Ki values were measured by assaying enzyme activity in the presence of different inhibitor compound concentrations and subtracting the background radioactivity measured in the absence of enzyme.
A complex of CDK2 and proteolyzed cyclin A was prepared and purified by gel filtration. […] Ki values were measured as described above.

In assay [2] the target is T2, CDK4/cyclin D3 (Homo sapiens, UniProt P11802).
T2 construct: made in house; host or cells: insect cells co-infected with baculovirus expression vectors
T2 sequence (P11802 whole entry): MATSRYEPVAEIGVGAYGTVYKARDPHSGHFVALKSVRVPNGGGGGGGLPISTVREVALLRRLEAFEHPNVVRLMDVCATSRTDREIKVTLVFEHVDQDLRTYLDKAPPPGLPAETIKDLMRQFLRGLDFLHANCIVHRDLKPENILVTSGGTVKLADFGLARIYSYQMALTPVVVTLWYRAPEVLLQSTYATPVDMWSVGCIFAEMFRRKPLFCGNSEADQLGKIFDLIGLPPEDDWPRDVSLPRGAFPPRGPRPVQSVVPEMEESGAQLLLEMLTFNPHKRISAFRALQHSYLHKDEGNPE
T2 sequence (P30281 whole entry partner): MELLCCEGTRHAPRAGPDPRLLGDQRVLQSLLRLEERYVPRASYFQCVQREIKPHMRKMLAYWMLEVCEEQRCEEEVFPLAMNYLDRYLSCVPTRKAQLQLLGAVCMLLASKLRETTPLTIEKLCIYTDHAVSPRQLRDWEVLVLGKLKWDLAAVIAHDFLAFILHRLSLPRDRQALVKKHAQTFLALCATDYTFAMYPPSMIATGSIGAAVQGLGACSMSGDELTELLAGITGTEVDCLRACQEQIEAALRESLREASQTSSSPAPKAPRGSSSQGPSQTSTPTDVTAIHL
Briefly: Inhibition of CDK4/Cyclin D retinoblastoma kinase activity. Conditions: for Ki: apparent Ki, Rb fragment substrate, 25 μM ATP. Type of assay: biochemical. On the procedure:
as §1, §2
Phosphorylated Rb substrate was captured by microfiltration on a nitrocellulose membrane and quantified using a phosphorimager as described above. For measurement of tight-binding inhibitors, the enzyme complex concentration was lowered to 5 nM, and the assay duration was extended to 60 minutes, during which the time-dependence of product formation was linear.

Assay [3] concerns HCT 116 cell line. Nature of the assay: Inhibition of cell growth, MTT tetrazolium salt assay. Type of assay: cell-based. As for the experimental part:
Inhibition of cell growth was measured using the tetrazolium salt assay, which is based on the ability of viable cells to reduce 3-(4,5-dimethylthiazol-2-yl)-2,5-[2H]-diphenyltetrazolium bromide (MTT) to formazan (Mossman, Journal of Immunological Methods, vol. 65 (1983), pp. 55-58). The water-insoluble purple formazan product was then detected spectrophotometrically. The HCT 116 cell line was grown in 96-well plates. Cells were plated in the appropriate medium at a volume of 135 μl/well in McCoy's 5A Medium. Plates were incubated for four hours before addition of inhibitor compounds. Different concentrations of inhibitor compounds were added in 0.5% (v/v) dimethylsulfoxide (15 μL/well), and cells were incubated at 37° C. (5% CO2) for four to six days (depending on cell type). At the end of the incubation, MTT was added to a final concentration of 0.2 mg/mL, and cells were incubated for 4 hours more at 37° C. After centrifugation of the plates and removal of medium, the absorbence of the formazan (solubilized in dimethylsulfoxide) was measured at 540 nm. The concentration of inhibitor compound causing 50% inhibition of growth was determined from the linear portion of a semi-log plot of inhibitor concentration versus percentage inhibition. All results were compared to control cells treated only with 0.5% (v/v) dimethylsulfoxide.

Each structure is given as a SMILES string. Structures can show the parent of a compound that is named as a salt.

With `COc1ccc(Nc2nc3[nH]nc(-c4ccccc4)c3s2)cc1` [Compound 1, 5-(4-Methoxyphenylamino)-3-phenyl-1H-pyrazolo[4,5-d]thiazole Hydrobromic Acid Salt], the Ki in assay [1] stood at 1 µM; in assay [2], 1.6 µM.
Broadly, the IC50 is the concentration that gives 50% inhibition. As for `NS(=O)(=O)c1ccc(Nc2nc3[nH]nc(-c4ccccc4)c3s2)cc1` [Compound 2, 3-Phenyl-5-(4-sulfonamidophenylamino)-1H-pyrazolo[4,5-d]thiazole Hydrobromic Acid Salt], in assay [3] (Homo sapiens, 144 h, HCT 116 cells, MTT, four to six days, read-out: IC50 HCT116), the IC50 is > 25 µM. The Ki in assay [1] was found to be 0.034 µM; in assay [2] it was 0.39 µM.
For the compound `NS(=O)(=O)c1ccc(Nc2nc3[nH]nc(-c4c(F)cccc4F)c3s2)cc1` [Compound 3, 3-(2,6-Difluorophenyl)-5-(4-sulfonamidophenylamino)-1H-pyrazolo [4,5-d]thiazole], the “inhibition of HCT116 growth (entry in IC50 column)” value in assay [3] (@ 25 μm) stood at 16% @ 25 μm. In assay [1] (@ 1 μm), the “inhibition of CDK2/A (entry in Ki column)” value is reported as 41% @ 1 μm. Besides, the “inhibition of CDK4/D3 (entry in Ki column)” value in assay [2] (@ 1 μm) is reported as 18% @ 1 μm.
Consider `CN1CCN(c2ccc(Nc3nc4[nH]nc(-c5ccccc5)c4s3)cc2)CC1` [Compound 4, 5-[4-(4-Methyl-piperazin-1-yl)-phenylamino]-3-phenyl-1H-pyrazolo[4,5-d]thiazole Hydrobromic Acid Salt], for which the Ki in assay [1] worked out at 1.6 µM; in assay [2], 0.17 µM.
